According to patent US20250249026A1 (priority 2019, published 2025):
Several values for one entry are separate records, joined by “and”; a condition that tells them apart may be missing. Identical values can stand only once. Entries after “also recorded” stand apart in the source; their conditions may differ.

Legend:
[1] = Removing peroxynitrite, SIN-1 as donor (Embodiment 9); type: biochemical; conditions: SIN-1 1 μmol/L, 1, 10, 100 μmol/L, 302 nm, FIG. 7
Method: 3-morpholino-sydnonimine (SIN-1) as a peroxynitrite donor was added to 15 test tubes at a concentration of 1 μmol/L. 5-methyltetrahydrofolate calcium was added to test tubes containing the SIN-1 solution to the final concentrations of 1 μmol/L, 10 μmol/L, and 100 μmol/L respectively; dehydroascorbic acid was added to test tubes containing the SIN-1 solution to the final concentrations of 1 μmol/L, 10 μmol/L, and 100 μmol/L respectively; glutathione was added to test tubes containing the SIN-1 solution to the final concentrations of 1 μmol/L, 10 μmol/L, and 100 μmol/L respectively; NMN was added to test tubes containing the SIN-1 solution to the final concentrations of 1 μmol/L, 10 μmol/L, and 100 μmol/L respectively; and tetrahydrobiopterin was added to test tubes containing the SIN-1 solution to the final concentrations of 1 μmol/L, 10 μmol/L, and 100 μmol/L respectively. The concentration of peroxynitrite was determined by spectrophotometry at a detection wavelength of 302 nm.

Macrophage RAW264.7 [2] = assay: NO secretion of macrophage RAW264.7 (Embodiment 12); type: cell-based, Mouse; conditions: for Lysate NO secretion amount / Supernatant NO secretion amount: Folate 15.625 μM, LPS group 1 μg/mL, mean, n = 6
Method: • 1. Cell line: Macrophage RAW264.7. • 2. […] II. Experimental scheme
An absorbance value at 520 nm was expressed as mean±standard deviation. NO secretion rate=(OD sample well-OD blank well)/(OD normal well-OD blank well)×100%, and the NO secretion amount was calculated according to a standard curve.

influenza = type: in vivo, human
Macrophage RAW264.7 [3] = conditions: 15.625, 62.5, 250 μmol/L; FIGS. 10-12
iNOS = assay: Expression of iNOS in macrophages induced by LPS (Embodiment 8); type: cell-based, Mouse; conditions: 10 μmol/L, LPS 0.1 μg/mL, 24 h, ELISA, FIG. 6
Method: 1. Cell line: Macrophage RAW264.7.
2. Reagents: LPS (Sigma); iNOS detection kit (Stressgen); MTT (Biotopped).
The level of iNOS protein in macrophages was determined by ELISA using an anti-human iNOS polyclonal antibody (Stressgen). The number of macrophages was determined by using an automatic flow cytometer.

[4] = randomized controlled trial / meta analyses from the literature; cited from earlier work
[5] = system: Mycoplasma pneumoniae (ATCCFH15531); assay: In vivo anti-mycoplasma pneumonia experiment (Embodiment 21); conditions: azithromycin 40 mg/kg; composition C 40 and 80 mg/kg; 10 days
Pseudomonas aeruginosa = assay: Gram-negative bacteria in vivo (Embodiment 18); set-up: species or system BAL B/C male mice; conditions: penicillin 450 mg/kg by gavage 30 min and 24 h after infection
Method: […] BAL B/C male mice weighing 18-22 g were divided into 6 groups with 8 mice in each group. […] After a bacterial solution of Pseudomonas aeruginosa was cultured by streaking on an LB solid medium, a typical colony was picked and inoculated into an ordinary LB liquid medium. After overnight shaking culture at 37° C. for about 12 h, the culture was centrifuged at 4000 r/min for 3 min, the supernatant was discarded, and the bacteria were resuspended in normal saline for later use. The BAL B/C male mice in each experimental group and three control groups were intraperitoneally injected with a fatal dose of Pseudomonas aeruginosa solution at a dose of 500 μL/mouse. 30 min after the BAL B/C male mice in the experimental groups were infected with the bacteria, the medium-dose composition group and the high-dose composition group were administered with drugs by gavage, the penicillin group and the meropenem group were also administered with drugs by gavage, and the normal group was administered with purified water by gavage. 24 h after administration, the BAL B/C male mice in each experimental group and control group were administered for the second time, and the drug type and dosage were the same as the administration for the first time. The BAL B/C male mice were observed every 24 h after administration, and their survival was recorded. All animals were sacrificed on the day 15.

[6] = listed as 5-methyltetrahydrofolic acid
[7] = Folate capsules 400 mg/capsule, per patient, row Mean = mean

## 6S-5-methyltetrahydrofolate calcium
[1]; [6]
  peroxynitrite scavenging: excellent peroxynitrite scavenging effects; also recorded: higher ability to scavenge peroxynitrite
Macrophage RAW264.7 [2]; 1 μg/mL LPS induction
  Lysate NO secretion amount: 1.725 µM
  Supernatant NO secretion amount: 36.814 µM
Macrophage RAW264.7 [2]; 15.625 μmol/L, macrophages induced by LPS, listed as 5-methyltetrahydrofolic acid
  effect on secretion/expression of NO in macrophages: did not inhibit; also recorded: hardly affects
Macrophage RAW264.7 [2]; No induction
  Lysate NO secretion amount: 3.863 µM
  Supernatant NO secretion amount: 1.714 µM
Macrophage RAW264.7 [2]; low concentration, no LPS
  effect on secretion of NO when no LPS stimulation is provided: promote the secretion of NO
influenza; [7]
  Basic rehabilitation (symptoms other than tonsillitis and sore throat disappeared): 33 hours (2×) and 35 hours and 13 hours and 12 hours (2×) and 17 hours (2×) and 32 hours (3×) and 8 hours and 43 hours and 18 hours and 34 hours and 15 hours and 11 hours and 56 hours and 24 hours and 10 hours and 46 hours and 58 hours and 53 hours and 14 hours
  Complete rehabilitation (all symptoms disappeared): 33 hours (2×) and 35 hours and 13 hours (3×) and 12 hours and 17 hours (2×) and 32 hours (2×) and 8 hours and 43 hours and 36 hours (2×) and 48 hours and 56 hours and 46 hours (3×) and 44 hours and 58 hours (2×) and 14 hours
  disappearance time of symptoms: Cough: 33 hours (2×) and 17 hours and 29 hours and 46 hours (2×) and 44 hours and 13 hours and 58 hours
  disappearance time of symptoms: Dizziness and fullness in head: 48 h and 9 h
  disappearance time of symptoms: Dry and itchy throat: 15 h
  disappearance time of symptoms: Fatigue: 35 hours and 8 hours (3×) and 12 hours (3×) and 15 hours and 10 hours (4×) and 33 hours
  disappearance time of symptoms: Headache: 13 hours and 12 hours (4×) and 32 hours (2×) and 8 hours (3×) and 9 hours and 10 hours (2×) and 14 hours
  disappearance time of symptoms: Inappetence: 13 h
  disappearance time of symptoms: Intolerance of cold and cold limbs: 10 h
  disappearance time of symptoms: Low fever: 10 h
  disappearance time of symptoms: Muscular soreness: 16 hours and 13 hours and 32 hours and 9 hours and 15 hours and 10 hours (2×) and 14 hours
  disappearance time of symptoms: Nasal stuffiness: 9 hours and 17 hours and 32 hours (2×) and 8 hours and 43 hours and 12 hours (3×) and 20 hours and 15 hours (2×) and 56 hours and 33 hours and 24 hours and 10 hours and 41 hours
  disappearance time of symptoms: Running nose: 11 hours (2×) and 13 hours and 32 hours and 8 hours and 9 hours and 20 hours and 15 hours and 12 hours (3×) and 33 hours (2×) and 46 hours and 53 hours and 17 hours and 14 hours
  disappearance time of symptoms: Sneezing: 32 hours (2×) and 9 hours (2×) and 18 hours and 34 hours and 15 hours and 12 hours (3×) and 8 hours and 33 hours and 10 hours and 17 hours
  disappearance time of symptoms: Sore throat: 33 hours (2×) and 12 hours (2×) and 32 hours (3×) and 29 hours and 36 hours (2×) and 46 hours and 10 hours and 54 hours and 58 hours and 14 hours
influenza; data in both Table 1 and Table 2
  time until the patients' influenza almost all healed: ≤ 2 days
Macrophage RAW264.7 [3]
  effect on expression of macrophages and inflammatory factors induced by LPS: no significant effect
iNOS; [6]
  effect on expression of iNOS in macrophages induced by LPS: did not affect; also recorded: almost no effect

## lipopolysaccharide [LPS, reference compound]
Macrophage RAW264.7 [2]; 1 μg/mL LPS induction
  Lysate NO secretion amount: 1.6 µM
  Supernatant NO secretion amount: 37.343 µM
Macrophage RAW264.7 [2]; No induction
  Lysate NO secretion amount: 1.95 µM
  Supernatant NO secretion amount: 42.714 µM

## N[C@@H](CCC(=O)N[C@@H](CS)C(=O)NCC(=O)O)C(=O)O [glutathione, reference compound]
iNOS
  effect on expression of iNOS in macrophages induced by LPS: did not affect; also recorded: almost no effect

## O=C1O[C@H]([C@@H](O)CO)C(=O)C1=O [dehydroascorbic acid]
[1]
  peroxynitrite scavenging: excellent peroxynitrite scavenging effects; also recorded: higher ability to scavenge peroxynitrite
iNOS
  effect on expression of iNOS in macrophages induced by LPS: almost no effect

## C[C@]12CCC(=O)C=C1CC[C@@H]1[C@@H]2[C@@H](O)C[C@@]2(C)[C@H]1CC[C@]2(O)C(=O)CO [hydrocortisone]
[4]
  mortality of patients with sepsis: could not reduce

## O=C1O[C@H]([C@@H](O)CO)C(O)=C1O [vitamin C]
[4]
  mortality of patients with sepsis: cannot improve

## CC[C@H]1OC(=O)[C@H](C)[C@@H](O[C@H]2C[C@@](C)(OC)[C@@H](O)[C@H](C)O2)[C@H](C)[C@@H](O[C@@H]2O[C@H](C)C[C@H](N(C)C)[C@H]2O)[C@](C)(O)C[C@@H](C)CN(C)[C@H](C)[C@@H](O)[C@]1(C)O [azithromycin]
[5]
  histopathological examination of the lung tissue: Mild interstitial pneumonia

## penicillin
Pseudomonas aeruginosa
  outcome of mice infected with the fatal dose of Pseudomonas aeruginosa: all the mice in the penicillin group died

## NC(=O)c1ccc[n+]([C@@H]2O[C@H](COP(=O)([O-])O)[C@@H](O)[C@H]2O)c1 [NMN, nicotinamide mononucleotide]
[1]
  peroxynitrite scavenging: excellent peroxynitrite scavenging effects; also recorded: higher ability to scavenge peroxynitrite
iNOS
  effect on expression of iNOS in macrophages induced by LPS: did not affect; also recorded: almost no effect
